Test [1] deals with Replicase polyprotein 1ab (Severe acute respiratory syndrome-related coronavirus, UniProt P0C6X7).
Another test addresses Neuraminidase (Influenza A virus, UniProt B4URF0). As to the kind of experiment: Inhibition of Influenza A virus H5N1 neuraminidase preincubated for 10 mins followed by addition of 2'-(4-methylumbelliferyl)-alpha-D-N-acetylneuraminic acid as fluorogenic substrate measured after 15 mins by fluorescence analysis.

Each structure is given as a SMILES string. A value given as a limit tells only on which side of the number the result lay.

These results are taken from ChEMBL document CHEMBL3808339, “Identification, synthesis and evaluation of SARS-CoV and MERS-CoV 3C-like protease inhibitors” (Bioorg Med Chem, 2016).

Sequence of Neuraminidase (B4URF0 whole entry): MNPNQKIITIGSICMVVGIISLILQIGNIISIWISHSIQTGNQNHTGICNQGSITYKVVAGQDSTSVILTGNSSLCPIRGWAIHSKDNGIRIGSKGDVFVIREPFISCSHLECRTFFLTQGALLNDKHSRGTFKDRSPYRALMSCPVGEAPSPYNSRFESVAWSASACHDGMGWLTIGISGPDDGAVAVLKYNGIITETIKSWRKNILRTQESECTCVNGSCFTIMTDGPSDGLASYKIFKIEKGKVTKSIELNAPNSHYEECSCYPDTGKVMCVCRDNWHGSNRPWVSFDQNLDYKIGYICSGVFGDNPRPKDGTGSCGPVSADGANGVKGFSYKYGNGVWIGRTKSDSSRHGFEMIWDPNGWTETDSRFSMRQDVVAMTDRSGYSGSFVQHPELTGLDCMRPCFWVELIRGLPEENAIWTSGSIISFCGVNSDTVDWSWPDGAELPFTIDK

In turn, `CC(C)(C)c1ccc(N2N=C(c3ccccc3)/C(=C/c3ccc(-c4cc(Cl)ccc4C(=O)O)o3)C2=O)cc1` yielded an IC50 in test [1] of 5.8 µM. As for `O=C(O)c1ccc(Cl)cc1-c1ccc(/C=C2\C(=O)N(c3ccc(F)cc3)N=C2c2ccccc2)o1`, the concentration for half-maximal inhibition (IC50) was found to be 20.2 µM in test [1] and 2.9 µM against Neuraminidase. The compound `O=C(O)c1cccc(N2N=C(c3ccccc3)/C(=C/c3ccc(-c4cc(Cl)ccc4C(=O)O)o3)C2=O)c1` came in with an IC50 in test [1] of 44.7 µM. `COc1ccc(N2N=C(c3ccccc3)/C(=C/c3ccc(-c4ccccc4C(=O)O)o3)C2=O)cc1` displayed an IC50 in test [1] of 30.7 µM. With `CC1=NN(c2cccc(C(=O)O)c2)C(=O)/C1=C\c1ccc(-c2ccccc2)o1`, in test [1], the IC50 was > 50 µM.

For the compound `N#Cc1ccc(N2N=C(c3ccccc3)/C(=C/c3ccc(-c4ccccc4C(=O)O)o3)C2=O)cc1`, the half-maximal inhibitory concentration (IC50) in test [1] came to 18.7 µM. This lies in the double-digit micromolar range. For the compound `CC(C)c1ccc(N2N=C(c3ccccc3)/C(=C/c3ccc(-c4ccccc4C(=O)O)o3)C2=O)cc1`, in test [1], the IC50 was found to be 11.7 µM. The compound `CC(C)(C)c1ccc(N2N=C(c3ccccc3)/C(=C/c3ccc(-c4ccccc4C(=O)O)o3)C2=O)cc1` showed an IC50 in test [1] of 8.6 µM. Same read-out and setting: with `O=C(O)c1cccc(N2N=C(c3ccccc3)/C(=C/c3ccco3)C2=O)c1` the figure was > 50 µM; with `O=C(O)c1cccc(N2N=C(c3ccccc3)/C(=C/c3ccc(-c4ccccc4)o3)C2=O)c1`, 6.4 µM.

On to `CC1=NN(c2ccccc2)C(=O)/C1=C\c1ccc(-c2cc(Cl)ccc2C(=O)O)o1`, for which the concentration for half-maximal inhibition (IC50) in test [1] is > 50 µM. For `O=C1/C(=C\c2ccc(-c3ccccc3)o2)C(c2ccccc2)=NN1c1ccccc1`, in test [1], the IC50 was > 50 µM. On the same count and under the same terms, in the case of `O=C(O)c1cccc(N2N=C(C(F)(F)F)/C(=C/c3ccc(-c4cc(Cl)ccc4C(=O)O)o3)C2=O)c1` it was > 50 µM; in that of `O=C(O)c1ccccc1-c1ccc(/C=C2\C(=O)N(c3ccc(F)cc3)N=C2c2ccccc2)o1`, 37.5 µM. As to `O=C(O)c1ccc(Cl)cc1-c1ccc(/C=C2\C(=O)N(c3ccccc3)N=C2c2ccccc2)o1`, the concentration for half-maximal inhibition (IC50) is 16.4 µM in test [1] and 2.8 µM against Neuraminidase.

Take `O=C(O)c1ccccc1-c1ccc(/C=C2\C(=O)N(c3ccccc3)N=C2c2ccccc2)o1`: the IC50 is 41.2 µM in test [1] and 13.7 µM on Neuraminidase. Turning to `CC1=NN(c2cccc(C(=O)O)c2)C(=O)/C1=C\c1ccc(-c2cc(Cl)ccc2C(=O)O)o1`, in test [1], the IC50 was > 50 µM.

The term IC50 denotes the concentration that gives 50% inhibition. A low value points to inhibition by little substance.
